“Also recorded” adds a separate entry of the source. Non-standard residues stand in square brackets, D forms with d. No end group written: not given here.
Tests used:
[1] = test system: histamine-induced itching; assay: Histamine-induced itching behavior; type: in vivo, rat; conditions: for itching behavior resulting from histamine administration (scratching events, 20 minutes): 10^−2 M (100 nmol/10 μl) peptide intrathecal immediately before s.c. histamine, vs saline
Procedure: (§1) Immediately after intrathecal administration of 10^−2 M (100 nmol/10 μl) DTrp^2-nSP, DTrp^2-nHK-1, or saline (10 μl) to intrathecally catheterized rats via catheters, an itching inducer (10^−3 M histamine (0.25 mg/50 μl) or 1.13×10^−4 M 5-HT (0.25 mg/50 μl)) was subcutaneously administered to the nape of the neck, and then itching behavior was determined for 20 minutes, thereby evaluating the degree of itching.
(§2) FIG. 8 and FIG. 9 show itching behavior resulting from administration of histamine and 5-HT. The vertical axis indicates the determined number of scratching events for a 20-minute period after histamine and 5-HT administration. The horizontal axis indicates DTrp^2-nSP, DTrp^2-nHK-1, and saline administered.
(§3) 4.5 mM (45 pmol/10 μl) GPR83 siRNA, 4.5 mM (45 pmol/10 μl) NK1R siRNA as target groups, and 10 μl of HVJ-E (reagent for introduction of siRNA) were administered to intrathecally catheterized rats via catheters. On day 4 after administration, itching inducers (10^−3 M histamine (0.25 mg/50 μl) and 1.13×10^−4 M 5-HT (0.25 mg/50 μl)) were each subcutaneously administered to the nape of the neck, itching behavior was determined for a 20-minute period after administration, and thus the degree of itching was evaluated.
(§4) FIG. 15 and FIG. 16 show the results of observing itching behavior resulting from histamine administration and 5-HT administration. The vertical axis indicates the number of scratching events during a 20-minute period after administration of histamine and 5-HT, and the horizontal axis indicates HVJ-E (reagent for introduction of siRNA), GPR83 siRNA, and NK1R siRNA administered.

[2] = test system: SP-induced scratching behavior; assay: SP-induced scratching behavior after intrathecal pre-administration of peptide or siRNA; type: in vivo, rat
Procedure: In addition, the number of scratching events induced by SP administration at 5 minutes after saline administration was designated as a control, and was specifically designated as 100%.
In addition, the number of scratching events induced by SP administration at 5 minutes after saline administration was designated as a control and was specifically designated as 100%.
10^−3 M (10 nmol/10 μl) N-terminal regions (nSP and nHK-1) and the following peptides subjected to substitution were administered to intrathecally catheterized rats via catheters.
5 minutes after administration, the number of scratching events induced by administration of 10^−3 M (10 nmol/10 μl) SP was evaluated. In addition, the number of scratching events induced by administration of 10^−3 M SP at 5 minutes after saline administration was designated as a control and was specifically designated as 100%.
10^−3 M (10 nmol/10 μl) DTrp^2-nSP and DTrp^2-nHK-1 were administered to intrathecally catheterized rats via catheters, and then the number of scratching events induced by administration of 10^−3 M (10 nmol/10 μl) SP was evaluated. […] In addition, the number of scratching events induced by SP administration at 5 minutes after saline administration was designated as a control and was specifically designated as 100%.
siRNA was prepared using an HVJ Envelop Vector Kit (ISHIHARA SANGYO KAISHA, LTD) according to the protocols of the kit. 10 μl of an siRNA solution was administered to intrathecally catheterized rats via catheters. With administration of only HVJ-E and administration of mismatch siRNA as controls, time-course changes in scratching events resulting from SP or HK-1 were evaluated.
Next, NK1R siRNA was intrathecally administered and then SP was intrathecally administered on days 4, 7, 10, and 14. […] The number of SP-induced scratching events was gradually recovered after siRNA administration.

5-HT-induced itching = assay: Serotonin (5-HT)-induced itching behavior; type: in vivo, rat; conditions: for itching behavior resulting from 5-HT administration (scratching events, 20 minutes): 10^−2 M (100 nmol/10 μl) peptide intrathecal immediately before s.c. 5-HT, vs saline
Procedure: as §1, §2, §3, §4

[3] = test system: intrathecally catheterized rats; assay: Scratching behavior after intrathecal administration of the peptide alone; type: in vivo, rat; conditions: 10^−3 M (10 nmol/10 μl) intrathecal
Procedure: 10^−3 M (10 nmol/10 μl) HK-1 and SP, the N-terminal regions (nHK-1 and nSP), and the C-terminal regions (cHK-1 and cSP) were administered to intrathecally catheterized rats via catheters. Ethological changes beginning immediately after administration were evaluated using the number of scratching events during a 5-minute period after each peptide administration as an indicator. Here, the expression “10^−3 M (10 nmol/10 μl) . . . administered” refers to administration of 10 μl (full dose) of a solution containing 10 nmol of a peptide (e.g., nHK-1) (that is, a 10^−3 M solution). The same applies to the following similar expressions. […] In these graphs, the number of scratching events induced by administration of 10^−3 M (10 nmol/10 μl) SP or HK-1 alone is designated as a control, and is specifically designated as 100%.

[4] = test system: SP-induced scratching behavior; assay: SP-induced scratching behavior after intrathecal pre-administration of peptide or siRNA; type: in vivo, rat; conditions: 5 minutes before SP
[5] = test system: formalin-induced inflammatory pain; assay: Formalin-induced pain behavior (flinching) after intraplantar formalin; type: in vivo, rat; conditions: 10^−2 M (100 nmol/10 μl) peptide intrathecal 5 minutes before 2% formalin; for pain behavior (flinching events) during phase I: 0-10 minutes; for pain behavior (flinching events) during phase II: 10-60 minutes
Procedure: 10^−2 M (100 nmol/10 μl) nSP and nHK-1, or saline (10 μl) was administered to intrathecally catheterized rats via catheters, and then 5 minutes later, 50 μl of 2% formalin was administered subeutaneously to the hind paws of rats. The number of flinching events (pain behavior) was determined for a 60-minute period after formalin administration, so that the degree of pain was evaluated. During the 10-minute period after formalin administration (referred to as phase I), pain behavior was determined once every 2 minutes (1 minute per determination). During the period from 10 minutes to 60 minutes after formalin administration (referred to as phase 11), pain behavior was determined once every 5 minutes (1 minute per determination), so that the degree of pain was evaluated. During phase I, behavior (phasic pain) resulting from chemical stimulation accompanying formalin administration was observed. During phase II, […] following the phasic pain was observed.
The horizontal axis indicates time (minutes) after formalin administration and the vertical axis indicates the determined number of pain behavior events per minute.
4.5 mM (45 pmol/10 μl) GPR83 siRNA, 4.5 mM (45 pmol/10 μl) NK1R siRNA as target groups, 4.5 mM (45 pmol/10 μl) mismatch siRNA (MM siRNA: negative control), and 10 μl of HVJ-E (reagent for introduction of siRNA) were administered to intrathecally catheterized rats via catheters. On day 4 after administration, 50 μl of 2% formalin was administered subcutaneously to the hind paws of rats. The number of flinching events (pain behavior) was determined for a 60-minute period after formalin administration, so that the degree of pain was evaluated. During the 10-minute period after formalin administration (referred to as phase I), pain behavior was determined once every 2 minutes (1 minute per determination). During the period from 10 minutes to 60 minutes after formalin administration (referred to as phase II), pain behavior was determined once every 5 minutes (1 minute per determination), so that the degree of pain was evaluated. During phase I, behavior (phasic pain) resulting from chemical stimulation accompanying formalin administration was observed. During phase II, tonic pain following the phasic pain was observed.

pain-related behavior = conditions: cited from earlier work; for induction of pain-related behavior (e.g., scratching behavior): administered to a rat or a mouse, Non-patent Document 1; for suppression of pain-related behavior resulting from SP: Non-patent Documents 1, 2 and 3
[6] = test system: intrathecally catheterized rats; conditions: depending on the concentrations of peptides administered, Non-patent Document 7; cited from earlier work
thermal hyperalgesia = conditions: intrathecal administration; Non-patent Documents 7, 9, 10, 11; cited from earlier work
NK1R = NK1R (Homo sapiens, UniProt P25103); conditions: Non-patent Documents 4, 5, and 6; cited from earlier work
Chain of NK1R (P25103 whole entry, species assumed): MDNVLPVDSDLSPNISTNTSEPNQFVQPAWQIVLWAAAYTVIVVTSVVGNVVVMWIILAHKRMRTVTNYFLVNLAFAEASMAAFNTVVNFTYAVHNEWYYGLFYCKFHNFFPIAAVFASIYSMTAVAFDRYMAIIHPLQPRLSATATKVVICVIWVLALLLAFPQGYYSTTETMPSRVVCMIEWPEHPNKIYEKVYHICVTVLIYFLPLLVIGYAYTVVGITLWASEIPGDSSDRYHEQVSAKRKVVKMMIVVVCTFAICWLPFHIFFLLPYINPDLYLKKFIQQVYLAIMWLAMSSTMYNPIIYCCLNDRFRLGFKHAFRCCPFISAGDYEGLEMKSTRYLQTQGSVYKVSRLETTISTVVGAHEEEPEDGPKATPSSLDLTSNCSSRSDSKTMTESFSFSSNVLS

[7] = 10^−3 M (10 nmol/10 μl) peptide intrathecal, administration interval 5 minutes before 10^−3 M SP
[8] = 10^−3 M peptide intrathecal, administration interval 20 minutes
[9] = 10^−3 M peptide intrathecal, administration interval 30 minutes
[10] = 10^−3 M peptide intrathecal, administration interval 10 minutes
[11] = 10^−3 M peptide intrathecal, administration interval 15 minutes
[12] = assumed in view of Examples 1 to 5, not tested

Substance: R[dW]RTR-NH2 [DTrp^2-nHK-1]
- itching behavior resulting from histamine administration (scratching events, 20 minutes) [1]: significantly lowered itching events
- suppression of the number of SP-induced scratching events [2, 7]: significantly suppress the number of scratching events
- suppression of the number of SP-induced scratching events [2, 8]: suppression effect was significantly exhibited; also recorded: maintained significant suppression effects
- suppression of the number of SP-induced scratching events [2, 9]: suppression effect disappeared
- itching behavior resulting from 5-HT administration (scratching events, 20 minutes) (5-HT-induced itching): significantly lowered the degree of itching behavior

Substance: Gln-Phe-Tyr-Gly-Leu-Met-NH2 (QFYGLM-NH2) [cHK-1]
- scratching behavior on administration of the peptide alone (number of scratching events during a 5-minute period) [3]: resulted in scratching behavior

Substance: Arg-Pro-Lys-Pro-Gln-NH2 (RPKPQ-NH2) [nSP]
- suppression of scratching behavior resulting from SP administration ([4]; 10^−4 M (1 nmol/10 μl) peptide intrathecal): suppressed scratching behavior resulting from SP administration
- suppression of scratching behavior resulting from SP administration ([4]; 10^−5 M (100 pmol/10 μl) peptide intrathecal): suppressed scratching behavior resulting from SP administration
- pain behavior (flinching events) during phase I [5]: pain behavior decreased significantly
- pain behavior (flinching events) during phase II [5]: pain behavior decreased significantly
- scratching behavior on administration of the peptide alone (number of scratching events during a 5-minute period) [3]: no scratching behavior
- suppression of the number of SP-induced scratching events [2, 7]: significantly suppress the number of scratching events; also recorded: an effect of suppressing the number of scratching events was exhibited significantly; also recorded: significant effects of suppressing SP-induced scratching behavior
- suppression of the number of SP-induced scratching events [2, 10]: suppression effect was exhibited to a significant degree
- suppression of the number of SP-induced scratching events [2, 11]: suppression effect disappeared

Substance: Gln-Phe-Phe-Gly-Leu-Met-NH2 (QFFGLM-NH2) [cSP]
- scratching behavior on administration of the peptide alone (number of scratching events during a 5-minute period) [3]: resulted in scratching behavior

Substance: R[dW]KPQ-NH2 [DTrp^2-nSP]
- itching behavior resulting from histamine administration (scratching events, 20 minutes) [1]: no difference was found in itching behavior
- suppression of the number of SP-induced scratching events [2, 7]: significantly suppress the number of scratching events
- suppression of the number of SP-induced scratching events [2, 8]: suppression effect was significantly exhibited; also recorded: maintained significant suppression effects
- suppression of the number of SP-induced scratching events [2, 9]: suppression effect disappeared
- itching behavior resulting from 5-HT administration (scratching events, 20 minutes) (5-HT-induced itching): no difference was found in the degree of itching behavior

Substance: Arg-Pro-Lys-Pro-Gln-Gln-Phe-Phe-Gly-Leu-Met-NH2 (RPKPQQFFGLM-NH2; listed as Homo sapiens) [SP]
- induction of pain-related behavior (e.g., scratching behavior) (pain-related behavior): induces pain-related behavior
- induction of scratching behavior by intrathecal administration [6]: induces scratching behavior
- induction of thermal hyperalgesia (thermal hyperalgesia): induces thermal hyperalgesia

Substance: Phe-Phe-Gly-Leu-Met-NH2 (FFGLM-NH2) [SP(7-11)]
- induction of pain-related behavior (e.g., scratching behavior) (pain-related behavior): pain-related behavior is induced

Substance: Arg-Ser-Arg-Thr-Arg-Gln-Phe-Tyr-Gly-Leu-Met-NH2 (RSRTRQFYGLM-NH2; listed as Homo sapiens) [HK-1]
- induction of scratching behavior by intrathecal administration [6]: induces scratching behavior
- induction of thermal hyperalgesia (thermal hyperalgesia): no such reaction at all
- affinity for NK1R (NK1R): high affinity

Substance: Arg-Pro-Lys-Pro-Gln-Gln-Phe-NH2 (RPKPQQF-NH2) [SP(1-7)]
- suppression of pain-related behavior resulting from SP (pain-related behavior): can be suppressed; also recorded: suppress pain-related behavior resulting from SP

Substance: Arg-Pro-Lys-Pro-Gln-Gln-Phe-Phe-NH2 (RPKPQQFF-NH2) [SP(1-8)]
- suppression of pain-related behavior resulting from SP (pain-related behavior): suppress pain-related behavior resulting from SP

Substance: Arg-Ser-Arg-Thr-Arg-NH2 (RSRTR-NH2) [nHK-1]
- pain behavior (flinching events) during phase I [5]: pain behavior decreased significantly
- pain behavior (flinching events) during phase II [5]: pain behavior decreased significantly
- suppression of histamine-induced itching (assumed) [1, 12]: suppresses
- scratching behavior on administration of the peptide alone (number of scratching events during a 5-minute period) [3]: no scratching behavior
- suppression of the number of SP-induced scratching events [2, 7]: significantly suppress the number of scratching events; also recorded: an effect of significantly suppressing scratching behavior; also recorded: significant effects of suppressing SP-induced scratching behavior
- suppression of the number of SP-induced scratching events [2, 10]: suppression effect was exhibited to a significant degree
- suppression of the number of SP-induced scratching events [2, 11]: suppression effect disappeared
- suppression of 5-HT-induced itching (assumed) (5-HT-induced itching; [12]): suppresses

From patent US10001469B2, “Use of GPR83 to identify pruritus-related substances” (University of Miyazaki, priority 2010, dated 2018)
